Measured values from US12338237B2, “Derivatives having 1,2,3,4-tetrahydronaphthalene moiety or pharmaceutically acceptable salt thereof and pharmaceutical compositions comprising the same” (YUHAN CORPORATION, priority 2019, dated 2025).
pIC50: −log10 of the molar value.

Legend:
[1] = target: glucosylceramide synthase (GCS) (Homo sapiens (Human), UniProt Q16739); assay: Evaluation of inhibitory activities against GCS (enzyme reaction with A549 cell lysate, NBD C6-ceramide, HPLC fluorescence); type: biochemical; details: GCS activity in A549 cell lysate, 37° C. for 90 minutes
Sequence of glucosylceramide synthase (GCS) (Q16739 whole entry, looked up): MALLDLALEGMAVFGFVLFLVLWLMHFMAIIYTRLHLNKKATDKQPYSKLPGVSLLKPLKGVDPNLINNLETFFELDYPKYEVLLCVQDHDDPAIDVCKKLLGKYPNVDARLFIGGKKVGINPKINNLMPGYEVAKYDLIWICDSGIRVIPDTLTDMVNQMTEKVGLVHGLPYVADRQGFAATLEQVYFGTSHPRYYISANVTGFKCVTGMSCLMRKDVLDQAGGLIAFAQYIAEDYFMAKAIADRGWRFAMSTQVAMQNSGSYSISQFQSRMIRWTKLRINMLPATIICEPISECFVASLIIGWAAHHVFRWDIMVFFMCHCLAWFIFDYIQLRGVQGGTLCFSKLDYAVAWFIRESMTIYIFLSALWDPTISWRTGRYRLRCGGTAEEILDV
How it was run: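 Lysate of A549 cells in 50 mM HEPES pH 7.3 incubated with test compound and NBD C6-ceramide at 37 °C for 90 min; lipids extracted with chloroform/methanol and GlcCer and ceramide peaks quantified by HPLC fluorescence. Activity from GlcCer area fraction, normalised between DMSO and ibiglustat controls.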

GM1 production = assay: cells; type: cell-based; details: Homo sapiens, Jurkat, 72 h

Row | Structure (SMILES) | pIC50 [1] | pIC50 (GM1 production)
1 | CC1(C)CCc2ccc(-c3ccc(OC(F)(F)F)cc3)cc2C1NC(=O)O[C@@H]1CN2CCC1CC2 (stereo partly drawn) [Example 154, (S)-quinuclidin-3-yl (2,2-dimethyl-7-(4-(trifluoromethoxy)phenyl)-1,2,3,4-tetrahydronaphthalen-1-yl)carbamate] | 8.08 | 7.75
2 | CC1(C)CCc2ccc(-c3cccc(F)c3)cc2C1NC(=O)O[C@@H]1CN2CCC1CC2 (stereo partly drawn) [Example 155, (S)-quinuclidin-3-yl (7-(3-fluorophenyl)-2,2-dimethyl-1,2,3,4-tetrahydronaphthalen-1-yl)carbamate] | 7.68 | 6.97
3 | CC1(C)CCc2ccc(-c3cccc(Cl)c3)cc2C1NC(=O)O[C@@H]1CN2CCC1CC2 (stereo partly drawn) [Example 156, (S)-quinuclidin-3-yl (7-(3-chlorophenyl)-2,2-dimethyl-1,2,3,4-tetrahydronaphthalen-1-yl)carbamate] | 7.71 | 6.88
4 | CC1(C)CCc2ccc(-c3cccc(C(F)(F)F)c3)cc2C1NC(=O)O[C@@H]1CN2CCC1CC2 (stereo partly drawn) [Example 157, (S)-quinuclidin-3-yl (2,2-dimethyl-7-(3-(trifluoromethyl)phenyl)-1,2,3,4-tetrahydronaphthalen-1-yl)carbamate] | 7.49 | 6.92
5 | CC1(C)CCc2ccc(-c3cccc(OC(F)(F)F)c3)cc2C1NC(=O)O[C@@H]1CN2CCC1CC2 (stereo partly drawn) [Example 158, (S)-quinuclidin-3-yl (2,2-dimethyl-7-(3-(trifluoromethoxy)phenyl)-1,2,3,4-tetrahydronaphthalen-1-yl)carbamate] | 7.47 | 6.60
6 | CC1(C)CCc2ccc(-c3ccccc3F)cc2C1NC(=O)O[C@@H]1CN2CCC1CC2 (stereo partly drawn) [Example 159, (S)-quinuclidin-3-yl (7-(2-fluorophenyl)-2,2-dimethyl-1,2,3,4-tetrahydronaphthalen-1-yl)carbamate] | 7.96 | 7.30
7 | CC1(C)CCc2ccc(-c3ccccc3Cl)cc2C1NC(=O)O[C@@H]1CN2CCC1CC2 (stereo partly drawn) [Example 160, (S)-quinuclidin-3-yl (7-(2-chlorophenyl)-2,2-dimethyl-1,2,3,4-tetrahydronaphthalen-1-yl)carbamate] | 7.84 | 7.17
8 | CC1(C)CCc2ccc(-c3ccccc3C(F)(F)F)cc2C1NC(=O)O[C@@H]1CN2CCC1CC2 (stereo partly drawn) [Example 161, (S)-quinuclidin-3-yl (2,2-dimethyl-7-(2-(trifluoromethyl)phenyl)-1,2,3,4-tetrahydronaphthalen-1-yl)carbamate] | 7.58 | 6.92
9 | CC1(C)CCc2ccc(-c3ccccc3OC(F)(F)F)cc2C1NC(=O)O[C@@H]1CN2CCC1CC2 (stereo partly drawn) [Example 162, (S)-quinuclidin-3-yl (2,2-dimethyl-7-(2-(trifluoromethoxy)phenyl)-1,2,3,4-tetrahydronaphthalen-1-yl)carbamate] | 7.98 | 7.24
10 | CC1(C)CCc2ccc(-c3ccc(OC(F)F)cc3)cc2C1NC(=O)O[C@@H]1CN2CCC1CC2 (stereo partly drawn) [Example 164, (S)-quinuclidin-3-yl (7-(4-(difluoromethoxy)phenyl)-2,2-dimethyl-1,2,3,4-tetrahydronaphthalen-1-yl)carbamate] | 8.03 | 7.58
11 | COCCOc1ccc(-c2ccc3c(c2)C(NC(=O)O[C@@H]2CN4CCC2CC4)C(C)(C)CC3)cc1 (stereo partly drawn) [Example 165, (S)-quinuclidin-3-yl (7-(4-(2-methoxyethoxy)phenyl)-2,2-dimethyl-1,2,3,4-tetrahydronaphthalen-1-yl)carbamate] | 7.74 | 7.61
12 | COCCOc1cccc(-c2ccc3c(c2)C(NC(=O)O[C@@H]2CN4CCC2CC4)C(C)(C)CC3)c1 (stereo partly drawn) [Example 166, (S)-quinuclidin-3-yl (7-(3-(2-methoxyethoxy)phenyl)-2,2-dimethyl-1,2,3,4-tetrahydronaphthalen-1-yl)carbamate] | 7.25 | 6.41
13 | COCCOc1ccccc1-c1ccc2c(c1)C(NC(=O)O[C@@H]1CN3CCC1CC3)C(C)(C)CC2 (stereo partly drawn) [Example 167, (S)-quinuclidin-3-yl (7-(2-(2-methoxyethoxy)phenyl)-2,2-dimethyl-1,2,3,4-tetrahydronaphthalen-1-yl)carbamate] | 7.71 | 6.99
14 | COCOc1ccc(-c2ccc3c(c2)C(NC(=O)O[C@@H]2CN4CCC2CC4)C(C)(C)CC3)cc1 (stereo partly drawn) [Example 168, (S)-quinuclidin-3-yl (7-(4-(methoxymethoxy)phenyl)-2,2-dimethyl-1,2,3,4-tetrahydronaphthalen-1-yl)carbamate] | 7.75 | 7.15
15 | COCOc1cccc(-c2ccc3c(c2)C(NC(=O)O[C@@H]2CN4CCC2CC4)C(C)(C)CC3)c1 (stereo partly drawn) [Example 169, (S)-quinuclidin-3-yl (7-(3-(methoxymethoxy)phenyl)-2,2-dimethyl-1,2,3,4-tetrahydronaphthalen-1-yl)carbamate] | 7.39 | 6.35
16 | COCOc1ccccc1-c1ccc2c(c1)C(NC(=O)O[C@@H]1CN3CCC1CC3)C(C)(C)CC2 (stereo partly drawn) [Example 170, (S)-quinuclidin-3-yl (7-(2-(methoxymethoxy)phenyl)-2,2-dimethyl-1,2,3,4-tetrahydronaphthalen-1-yl)carbamate] | 8.03 | 7.41
17 | O=C(NC1c2cc(-c3ccc(F)cc3)ccc2CCC12CC2)O[C@@H]1CN2CCC1CC2 (stereo partly drawn) [Example 171, (S)-quinuclidin-3-yl (7′-(4-fluorophenyl)-3′,4′-dihydro-1′H-spiro[cyclopropane-1,2′-naphthalen]-1′-yl)carbamate] | 8.27 | 7.02
18 | O=C(NC1c2cc(-c3ccc(Cl)cc3)ccc2CCC12CC2)O[C@@H]1CN2CCC1CC2 (stereo partly drawn) [Example 172, (S)-quinuclidin-3-yl (7′-(4-chlorophenyl)-3′,4′-dihydro-1′H-spiro[cyclopropane-1,2′-naphthalen]-1′-yl)carbamate] | 8.32 | 7.17
19 | O=C(NC1c2cc(-c3ccc(C(F)(F)F)cc3)ccc2CCC12CC2)O[C@@H]1CN2CCC1CC2 (stereo partly drawn) [Example 173, (S)-quinuclidin-3-yl (7′-(4-(trifluoromethyl)phenyl)-3′,4′-dihydro-1′H-spiro[cyclopropane-1,2′-naphthalen]-1′-yl)carbamate] | 8.79 | 7.72
20 | O=C(NC1c2cc(-c3ccc(OC(F)(F)F)cc3)ccc2CCC12CC2)O[C@@H]1CN2CCC1CC2 (stereo partly drawn) [Example 174, (S)-quinuclidin-3-yl (7′-(4-(trifluoromethoxy)phenyl)-3′,4′-dihydro-1′H-spiro[cyclopropane-1,2′-naphthalen]-1′-yl)carbamate] | 8.36 | 7.41
21 | O=C(NC1c2cc(-c3cccc(F)c3)ccc2CCC12CC2)O[C@@H]1CN2CCC1CC2 (stereo partly drawn) [Example 175, (S)-quinuclidin-3-yl (7′-(3-fluorophenyl)-3′,4′-dihydro-1′H-spiro[cyclopropane-1,2′-naphthalen]-1′-yl)carbamate] | 7.83 | 6.78
22 | O=C(NC1c2cc(-c3cccc(Cl)c3)ccc2CCC12CC2)O[C@@H]1CN2CCC1CC2 (stereo partly drawn) [Example 176, (S)-quinuclidin-3-yl (7′-(3-chlorophenyl)-3′,4′-dihydro-1′H-spiro[cyclopropane-1,2′-naphthalen]-1′-yl)carbamate] | 7.83 | 6.68
